Key:
Vγ9Vδ2 T cells = assay: ICT01-induced IFNγ production by Vγ9Vδ2 T cells in HD-PBMC (intracellular staining); format: cell-based, human; details: for effect on ICT01-induced IFNγ production by Vγ9Vδ2 T cells: single agent, independent of IL2
Procedure: To evaluate the effect of Venetoclax and 5-Azacytidine on cytokine production, freshly isolated human PBMC from healthy donors (HD, n=6) were cultured in PBMC medium (RPMI 1640 Medium supplemented with 10% Fetal Bovine Serum (FBS), 1% Penicillin/Streptomycin and 1 mM Sodium Pyruvate) and treated with ICT01 or its isotype control (hIgG1S) used at 1 μg/mL in the presence or absence of increasing concentrations of Venetoclax (0-0.1 μM), 5-Azacytidine (0-0.4 μM) or the combination. Half of the cells were additionally treated with 50 IU/mL IL2. Golgi Stop was added after 6-8 hours of co-culture and cells were harvested 16 h later, centrifuged at 1800 rpm for 5 minutes and then incubated 10 minutes at room temperature (RT) with 25 μl of FcR blocking reagent (Miltenyi Biotec) before adding 25 μL of the following antibody mix prepared in PBS+2% FBS+2 mM EDTA (FACS buffer): anti-CD4-BV650, Vγ9-FITC, CD3-PE-CF594, CD56-PE-Vio770 and CD8-AF700 antibodies for the identification of immune subsets, and a viability marker (LIVE/DEAD™ Fixable Dead Cell Stain) was added to distinguish live from dead cells. After 20 minutes, 100 μL of CytoFix solution (BD Bioscience) was added, and cells were incubated for 20 minutes at 4° C. 100 μL of Perm/Wash (BD Bioscience) were added, cells centrifuged and washed once in 200 μL Perm/Wash. After washing, cells were stained with anti-IFNγ-APC antibody for 30 minutes at 4° C., washed twice with Perm/Wash, and analyzed by flow cytometry.

KG1a AML cells = assay: Killing of KG1a AML cells in co-culture with HD-PBMC (flow cytometry); format: cell-based, human; details: for effect on Vγ9Vδ2 T cell killing activity compared to hIgG1S conditions: upon activation with ICT01, single agent, KG1a co-culture with HD-PBMC
Procedure: A) Sensitivity of KG1a cell line to Venetoclax, 5-Azacytidine or the combination. […] N=2 experiments. B) Mean±SEM relative number of Live KG1a AML cells monitored by flow cytometry after 3 days of co-culture with HD-PBMC (E:T ratio 25:1) treated with ICT01 (black) or its isotype control (hIgG1S, light grey) at 0.1 or 1 μg/mL. N=6, each dot represents one healthy donor. C) Schematic representation of treatment schedule for killing of KG1a AML cells by HD-PBMC. D) Relative number of Live KG1a AML cells (Mean±SEM) (left) and Frequency of Live KG1a AML cell relative to no Venetoclax or 5-Azacytidine treatment (Mean±SEM) (right) after 3 days of co-culture with HD-PBMC in presence of ICT01 (black) or its isotype control (hIgG1S, light grey) and treatment with Venetoclax, 5-Azacytidine or the combination. N=6, each dot represents one healthy donor, * p<0.05, Wilcoxon test.
KG1a cells were co-cultured with HD-PBMC at ratio 5:1 in presence of m20.1 or isotype control (0.1 μg/mL). After 6 hrs, indicated concentrations of Venetoclax, 5-Azacytidine or the combination were added to the culture. Relative number of live KG1a was monitored after 48 hrs by flow cytometry. […] N=6, each dot represents one healthy donor, * p<0.05, ** p<0.01, *** p<0.001, **** p<0.0001, 2 way ANOVA.
KG1a or MOLM14 AML cell lines were co-cultured with HD-PBMC at ratio 5:1 in presence of ICT01 or isotype control (0.1 μg/mL). After 6 hrs, indicated concentrations of ABT-737, Navitoclax or MIK665 were added to the culture. A) Relative numbers of live KG1a cells (Mean±SEM) after 2 days of co-culture with HD-PBMC in presence of ICT01 (black) or its isotype control hIgG1S (light grey) and treatment with indicated concentration of ABT-737. B) Relative numbers of live KG1a cells (Mean±SEM) after 2 days of co-culture with HD-PBMC in presence of ICT01 (black) or its isotype control hIgG1S (light grey) and treatment with indicated concentration of Navitoclax. C) Relative numbers of live MOLM14 cells (Mean±SEM) after 2 days of co-culture with HD-PBMC in presence of ICT01 (black) or its isotype control hIgG1S (light grey) and treatment with indicated concentration of MIK665. N=6 HD, each dot represents one healthy donor, * p<0.05, 2 way ANOVA.
The effect of Venetoclax and 5-Azacytidine on anti-BTN3A antibodies-induced killing of AML cell lines by Vγ9Vδ2 T cells was assessed by measuring the relative number of surviving target cells in a HD-PBMC-AML cell co-culture using flow cytometry.
Then, KG1a AML cells were stained with CellTrace CFSE Proliferation dye (ThermoFisher) to allow for specific detection by flow cytometry, counted, put into a co-culture with thawed HD-PBMC and treated with the anti-BTN3A mAbs ICT01 or m20.1 or their respective isotype controls (hIgG1S or mIgG1) in PBMC medium (RPMI 1640 Medium supplemented with 10% Fetal Bovine Serum (FBS) and 1 mM Sodium Pyruvate). On day one of culture, increasing concentrations of Venetoclax (0-0.4 μM), 5-Azacytidine (0-0.4 μM) or the combination were added. Cells were harvested on day 3 of co-culture, centrifuged at 1800 rpm for 5 minutes and then incubated 10 minutes at room temperature (RT) with 25 μl of FcR blocking reagent (Miltenyi Biotec) before adding 25 μL of the following antibody mix prepared in PBS+2% FBS+2 mM EDTA (FACS buffer): anti-CD56-BV421, CD19-BV421, CD14-BV785, Tyb-PE and CD3-AF700 antibodies for the identification of immune subsets, and a viability marker (LIVE/DEAD™ Fixable Dead Cell Stain) was added to distinguish live and dead cells. Cells were incubated 20 minutes at room temperature, washed once in FACS buffer and once in AnnexinV staining buffer. An AnnexinV-APC probe mixed with CountBright Absolute Counting Beads (Invitrogen) was added to determine apoptosis and relative cell numbers, followed by 15 minutes incubation at RT before flow cytometry analysis. […]

## Nc1ncn([C@@H]2O[C@H](CO)[C@@H](O)[C@H]2O)c(=O)n1 [5-Azacytidine, 4-amino-1-[(2R,3R,4S,5R)3,4-dihydroxy-5-(hydroxymethyl)oxolan-2-yl]-1,3,5-triazin-2-one]
Vγ9Vδ2 T cells
  effect on ICT01-induced IFNγ production by Vγ9Vδ2 T cells: no effect
KG1a AML cells; hIgG1S conditions, co-culture with HD-PBMC, day 3
  effect on KG1a survival: no effect
KG1a AML cells; mIgG1 conditions, HD-PBMC ratio 5:1, 48 hrs
  effect on KG1a survival: no effect
KG1a AML cells
  effect on Vγ9Vδ2 T cell killing activity compared to hIgG1S conditions: slight increasing effects

## CC1(C)CCC(CN2CCN(c3ccc(C(=O)NS(=O)(=O)c4ccc(NCC5CCOCC5)c([N+](=O)[O-])c4)c(Oc4cnc5[nH]ccc5c4)c3)CC2)=C(c2ccc(Cl)cc2)C1 [Venetoclax, 4-[4-[[2-(4-chlorophenyl)-4,4-dimethylcyclohexen-1-yl]methyl]piperazin-1-yl]-N-[3-nitro-4-(oxan-4-ylmethylamino)phenyl]sulfonyl-2-(1H-pyrrolo[2,3-b]pyridin-5-yloxy)benzamide]
Vγ9Vδ2 T cells
  effect on ICT01-induced IFNγ production by Vγ9Vδ2 T cells: no effect
KG1a AML cells; hIgG1S-treatment conditions, highest concentration, co-culture with HD-PBMC, day 3
  reduction of KG1a relative numbers: ~ 28%
KG1a AML cells; mIgG1 conditions, Venetoclax 0.1 μM alone or combined with 0.4 μM 5-Azacytidine, HD-PBMC ratio 5:1, 48 hrs
  reduction of KG1a relative numbers: 41%
KG1a AML cells
  effect on Vγ9Vδ2 T cell killing activity compared to hIgG1S conditions: slight increasing effects

## ICT01: humanized BTN3A activating antibody of mAb 7.2, heavy chain SEQ ID NO: 4, light chain SEQ ID NO: 6, silent IgG1 L247F/L248E/P350S
Vγ9Vδ2 T cells; HD-PBMC activated with ICT01 (1 μg/mL) in presence of IL2 (50 IU/mL)
  IFNγ production by Vγ9Vδ2 T cells: 89.1%
Vγ9Vδ2 T cells; HD-PBMC activated with ICT01 alone (1 μg/mL), no IL2
  IFNγ production by Vγ9Vδ2 T cells: 30.4%
KG1a AML cells; 3 days co-culture with HD-PBMC (E:T ratio 25:1), large variability within PBMC donors
  average reduction of live KG1a cell numbers compared to hIgG1S conditions: ~ 20%
KG1a AML cells; ICT01 0.1 μg/mL, HD-PBMC ratio 5:1, 2 days (FIG. 8a)
  KG1a cell death as compared to control condition: ~ 21%

Reference: patent US20260256909A1, “COMBINATION OF A BTN3A ACTIVATING ANTIBODY, A BCL2 INHIBITOR AND HYPOMETHYLATING AGENT FOR USE IN TREATING CANCER” (Imcheck Therapeutics, priority 2022, published 2026)
